Data reported in BindingDB's records for doi:10.1016/j.bmcl.2008.08.034 (University of Illinois At Chicago, 2008).

What follows are compounds tested against T1, 1-deoxy-D-xylulose-5-phosphate synthase (Mycobacterium tuberculosis (strain ATCC 25618 / H37Rv), UniProt P9WNS3) (assay: Inhibition of Mycobacterium tuberculosis cloned 1-deoxy-D-xylulose-5-phosphate synthase expressed in Escherichia coli).
T1 sequence (P9WNS3 whole entry): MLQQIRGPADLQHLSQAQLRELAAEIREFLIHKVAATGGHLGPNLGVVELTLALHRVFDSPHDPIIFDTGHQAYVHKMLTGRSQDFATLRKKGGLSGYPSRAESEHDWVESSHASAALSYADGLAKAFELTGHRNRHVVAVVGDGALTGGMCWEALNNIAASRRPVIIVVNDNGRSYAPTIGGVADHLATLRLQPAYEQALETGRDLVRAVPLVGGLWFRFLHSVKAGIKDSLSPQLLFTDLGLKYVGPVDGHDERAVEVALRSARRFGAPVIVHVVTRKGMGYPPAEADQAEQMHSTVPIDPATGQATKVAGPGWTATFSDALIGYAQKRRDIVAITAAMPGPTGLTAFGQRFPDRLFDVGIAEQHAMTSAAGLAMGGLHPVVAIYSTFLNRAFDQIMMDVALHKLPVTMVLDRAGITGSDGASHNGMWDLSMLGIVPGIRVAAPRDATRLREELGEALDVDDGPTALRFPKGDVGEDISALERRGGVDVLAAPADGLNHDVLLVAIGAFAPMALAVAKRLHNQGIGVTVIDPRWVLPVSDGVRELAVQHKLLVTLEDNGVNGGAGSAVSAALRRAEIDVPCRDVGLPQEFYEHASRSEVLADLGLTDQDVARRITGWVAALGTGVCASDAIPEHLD
`Cc1cc(=O)n2[nH]cc(-c3ccc(Cl)cc3)c2n1` [3-(4-chlorophenyl)-5-methylpyrazolo[1,5-a]pyrimidin-7(4H)-one] gave an IC50 of over 200 µM. `O=c1cc(CCl)nc2c(-c3ccccc3)c[nH]n12` [5-(chloromethyl)-3-phenylpyrazolo[1,5-a]pyrimidin-7(4H)-one] was tested, and the IC50 was over 200 µM. In the case of `Cc1cc(=O)n2[nH]c(C(F)(F)F)c(-c3ccc(Br)cc3)c2n1` [3-(4-bromophenyl)-5-methyl-2-(trifluoromethyl)pyrazolo[1,5-a]pyrimidin-7(4H)-one], the IC50 is reported as over 200 µM. `Cc1nc2c(-c3ccc(Cl)cc3)c(C(F)(F)F)[nH]n2c(=O)c1Cc1ccccc1` was tested, and the IC50 was over 200 µM. For `CCCc1c(-c2ccccc2)nc2c(-c3ccccc3)c(C)[nH]n2c1=O` [2-methyl-3,5-diphenyl-6-propylpyrazolo[1,5-a]pyrimidin-7(4H)-one], the IC50 was 17.9 µM. For `COCc1cc(=O)n2[nH]cc(-c3ccc(Cl)cc3)c2n1` [3-(4-chlorophenyl)-5-(methoxymethyl)pyrazolo[1,5-a]pyrimidin-7(4H)-one], the IC50 was over 200 µM. With `COCc1cc(O)n2nc(C)c(-c3ccc(Cl)cc3)c2n1` [3-(4-chlorophenyl)-5-(methoxymethyl)-2-methylpyrazolo[1,5-a]pyrimidin-7(4H)-one] the IC50 was over 200 µM.
